Drawing on PMC8227400, “Novel N-Arylsulfonylindoles Targeted as Ligands of the 5-HT6 Receptor. Insights on the Influence of C-5 Substitution on Ligand Affinity” (Pharmaceuticals, 2021), this text covers melting point and Ki for eleven compounds.

Structures are written as SMILES.

System in the first data set: not given
Settings: not given
`O=S(=O)(c1cccc2ccccc12)n1cc(C(O)CN2CCN(c3ccccn3)CC2)c2cc(F)ccc21` (centres unmarked) [4e, 1-(5-fluoro-1-(naphthalen-1-ylsulfonyl)-1H-indol-3-yl)-2-(4-(pyridin-2-yl)piperazin-1-yl)ethan-1-ol]: the melting point is 112 to 114 °C.

Compound `COc1ccccc1N1CCN(CC(O)c2cn(S(=O)(=O)c3ccc(I)cc3)c3ccc(F)cc23)CC1` (centres unmarked) [4a, 1-(5-fluoro-1-((4-iodophenyl)sulfonyl)-1H-indol-3-yl)-2-(4-(2-methoxyphenyl)piperazin-1-yl) ethan-1-ol] had a melting point of 94.5 to 96.4 °C.

Consider `COc1ccc2c(c1)c(C(O)CN1CCOCC1)cn2S(=O)(=O)c1cccc2ccccc12` (centres unmarked) [4m, 1-(5-methoxy-1-(naphthalen-1-ylsulfonyl)-1H-indol-3-yl)-2-morpholinoethan-1-ol], for which the melting point lay within 190 to 192 °C.

For the compound `COc1ccc2c(c1)c(C(O)CN1CCN(c3ccccc3OC)CC1)cn2S(=O)(=O)c1ccc(I)cc1` (centres unmarked) [4j, 1-(1-((4-iodophenyl)sulfonyl)-5-methoxy-1H-indol-3-yl)-2-(4-(2-methoxyphenyl)piperazin-1-yl)ethan-1-ol], the melting point is 101 to 104 °C.

For `O=S(=O)(c1cccc2ccccc12)n1cc(C(O)CN2CCN(c3ncccn3)CC2)c2cc(F)ccc21` (centres unmarked) [4g, 1-(5-fluoro-1-(naphthalen-1-ylsulfonyl)-1H-indol-3-yl)-2-(4-(pyrimidin-2-yl)piperazin-1-yl)ethan-1-ol], the melting point lay in the range of 100 to 103 °C.

`O=S(=O)(c1ccc(I)cc1)n1cc(C(O)CN2CCN(c3ccccn3)CC2)c2cc(F)ccc21` (centres unmarked) [4b, 1-(5-fluoro-1-((4-iodophenyl)sulfonyl)-1H-indol-3-yl)-2-(4-(pyridin-2-yl)piperazin-1-yl)ethan-1-ol] yielded a melting point of 135 to 137 °C.

For the compound `COc1ccccc1N1CCN(CC(O)c2cn(S(=O)(=O)c3cccc4ccccc34)c3ccc(F)cc23)CC1` (centres unmarked) [4d, 1-(5-fluoro-1-(naphthalen-1-ylsulfonyl)-1H-indol-3-yl)-2-(4-(2-methoxyphenyl)piperazin-1-yl)ethan-1-ol], the melting point lay in the range of 181.1 to 183.2 °C.

`COc1ccc2c(c1)c(C(O)CN1CCN(c3ccccc3OC)CC1)cn2S(=O)(=O)c1cccc2ccccc12` (centres unmarked) [4l, 1-(5-methoxy-1-(naphthalen-1-ylsulfonyl)-1H-indol-3-yl)-2-(4-(2-methoxyphenyl)piperazin-1-yl)ethan-1-ol] yielded a melting point of 105 to 107 °C.

Compound `O=S(=O)(c1cccc2ccccc12)n1cc(C(O)CN2CCOCC2)c2cc(F)ccc21` (centres unmarked) [4f, 1-(5-fluoro-1-(naphthalen-1-ylsulfonyl)-1H-indol-3-yl)-2-morpholinoethan-1-ol] came in with a melting point of 164.1 to 165.8 °C.

The compound `COc1ccc2c(c1)c(C(O)CN1CCOCC1)cn2S(=O)(=O)c1ccc(I)cc1` (centres unmarked) [4k, 1-(1-((4-iodophenyl)sulfonyl)-5-methoxy-1H-indol-3-yl)-2-morpholinoethan-1-ol] showed a melting point of 120 to 124 °C.

The target of another data set is 5-HT6 receptor. The note with it: cited from earlier work.
In the case of `COc1ccc2c(c1)c(CCN(C)C)cn2S(=O)(=O)c1ccccc1` [MS-245], the Ki was 2.3 nM.

The term melting point denotes the temperature, or range, at which the solid turns liquid. Broadly, the Ki is the equilibrium dissociation constant of an inhibitor or competing ligand from its target.
